Entries after “also recorded” stand apart in the source; their conditions may differ.
Key:
Assay type in all cases: in vivo, dog
myocardial infarct = assay: Model 2: 2-hr LAD occlusion/4-hr reperfusion, infarct size
Procedure: Model 2: Acute changes in infarct size. Seventeen 15-22 kg male mongrel dogs were anesthetized and respired as described above. Body temperature was maintained using a temperature-controlled operative table bed and fluid replacement. Two EKG leads (L-II and V-3) and arterial pressure (left femoral) were continuously monitored during the experiment. […] After 4 hours of reperfusion, the heart was removed and rinsed with room-temperature Tyrode's solution. Cannulae were placed into the proximal aorta and into the LAD artery at the site of occlusion for perfusion with Evans blue (0.1%) and TTZ (0.1%), respectively, at equal pressure (80 mmHg). The area at risk of infarction was delineated by its red color (surviving myocardium) or a pale color (infarct) with the remaining heart stained by Evan's blue. The heart was then sliced to provide a 5 mm thick section parallel to the AV groove. After storage overnight in buffered formalin, infarcted tissue, surviving myocardium within the anatomic area at risk of infarction, and left ventricle outside the area at risk of infarction were separated using a scalpel blade. Infarct mass, area at risk of infarction, left ventricular mass, and total heart mass were determined gravimetrically. Anti-TNFα Treatment: A dosage of 2 mg/kg hTNFR:Fc (supplied as etanercept, Amgen, Inc, Thousand Oaks, Calif.) or saline were injected IV into a forepaw vein at 24-hr and again 1-hr prior to LAD ligation. […] This dosage was used after consultation with the pharmaceutical corporate pharmacology section and based on unpublished internal data that this dosage would provide maximal sequestration of tissue and circulating TNFα.

[1] = test system: ventricular tachyarrhythmias following LAD coronary artery ligation; assay: Model 1: two-stage LAD coronary artery ligation, Holter EKG monitoring 2-24 hr (ventricular triplets, sustained VT/VF, death)
Procedure: The two-stage ligation procedure results in a very low incidence of ventricular fibrillation (<5-10%) during the initial 6 hours following coronary artery occlusion (Harris et al., 1951). Almost all ventricular fibrillation occurs during the initial 30 minutes with a high proportion of successful defibrillation. Ambulatory EKG monitoring is performed over the 2-24 hr period following coronary artery ligation. During the 6-24 hr period, a 25-40% incidence of rapid monomorphic ventricular tachycardia (385±15/min) leading to ventricular fibrillation is observed at 13.3±0.8 hours post-LAD ligation (FIG. 1), with a mean duration of monomorphic ventricular tachycardia preceding ventricular fibrillation of 66±7 sec. When provocative ventricular pacing is performed at 24 hours, however, the reentrant substrate supporting sustained ventricular tachycardia is present in more than 80% of the surviving dogs with no difference in rate between spontaneous and pacing-induced sustained monomorphic ventricular tachycardias (FIG. 3).
In the 24-hr Infarct (Model 1) Studies, each control and etanercept pretreated animal was monitored for ventricular arrhythmias using a Holter 2-lead recording for the duration of time following LAD ligation. […] In the saline control group, 4 animals died at 11-24 hours post ligation. […]
Model 1: Electrophysiologic correlates of myocardial infarction over a 24-hr period. Eighteen 15-22 kg male mongrel dogs were anesthetized with IV sodium pentobarbital (30 mg/kg). A cuffed endotracheal tube was inserted and the animals were ventilated with room air using a volume-cycled respirator. […] The dogs were extubated and allowed to awaken in a temperature-controlled, humidified small animal post-operative recovery unit. They were given nalbuphine 0.2 mg/kg for post-operative analgesia. During the 2-24 hr period following LAD ligation, Holter monitoring was performed and the two-lead EKG was recorded on magnetic tape. Dogs were re-anesthetized with sodium pentobarbital at 24-hr. The thoracotomy was reopened and the heart was removed and perfused with ice-cold Tyrode's buffer via the left main coronary artery. The outer 0.5-1.5 mm EBZ tissue overlying the infarct was shaved and a longitudinal sample of tissue from the LAD region was stained with triphenyltetrazolium chloride (0.1%) to determine viability of the EBZ. Triphenyltetrazolium (TTZ) forms a brick-red precipitate in the presence of active intracellular dehydrogenases, delineating vital tissue. Non-viable tissues are not stained and remain a pale color. […] Tissue samples from the RS, the EBZ and the infarct tissue were dissected rapidly on an ice-cold surface, placed in freezer vials, and frozen in liquid nitrogen. These samples were then stored at −70° C. for later assay.
EKG Analysis: Full disclosure EKG records were obtained at 10 mm/sec for the entire 2-24 hour post-occlusion period. All measurements and calculations were made by direct visual observation and manual counting.
(§1) Anti-TNFα Treatment: A dosage of 2 mg/kg hTNFR:Fc (supplied as etanercept, Amgen, Inc, Thousand Oaks, Calif.) or saline were injected IV into a forepaw vein at 24-hr and again 1-hr prior to LAD ligation. […] This dosage was used after consultation with the pharmaceutical corporate pharmacology section and based on unpublished internal data that this dosage would provide maximal sequestration of tissue and circulating TNFα.

[2] = test system: β-adrenergic receptor kinase (βARK); assay: βARK immunoblot of EBZ tissue 24 hr after LAD ligation (Model 1); settings: 24 hr after LAD ligation
Procedure: βARK immunoblots were used to estimate βARK expression (Yu et al., 2000).
Western Blot Analysis: Assessment of βARK content was conducted using standard SDS-PAGE and immunoblot techniques. Samples containing 100 μg of protein from myocardial extracts were electrophoresed using 10% SDS-PAGE and transferred to nitrocellulose membranes. The membrane was incubated with monoclonal anti-βARK (Upstate Biotechnology, Inc, Lake Placid, N.Y.), followed by exposure to peroxidase-linked anti-mouse IgG. Antibody binding was detected by a chemiluminescent method (ECL, Amersham Biosciences Corp, Piscataway, N.J.). Quantification of immunoreactive proteins was performed by densitometric scanning and with Image QuaNT software (Molecular Dynamics).
β-ARK, Proteasome and Ubiquitin Expression Assays: β-ARK, ubiquitinated β-ARK and proteasome in EBZ and RS tissues was determined by Western blot analysis. Samples were adjusted after protein concentration was assayed (BCA, Pierce Chemicals) to provide identical loads. 100 μg protein was combined with equal volume of SDS sample buffer, and electrophoresed on a 10% polyacrylamide gel. The blocked membranes were incubated with mouse anti β-ARK monoclonal antibody (Santa Cruz Biotechnology, Santa Cruz, Calif.) for 1-h at room temperature followed by anti-mouse IgG coupled to horseradish peroxidase and developed using an ECL western blotting kit (Amersham). The bands were scanned, stripped and reprobed with mouse anti-ubiquitin antibody (Santa Cruz Biotechnology, Santa Cruz, Calif.). The membrane was rescanned, stripped a second time and reprobed with rabbit anti-proteasome 20S C2 subunit polyclonal antibody (A.G. Scientific, Inc. CA). A separate control gel was included that was similarly treated, but reprobed with the identical Ab and band quality and density compared to the previous data obtained before stripping. Quantitation of immunoreactive bands was performed by densitometric scanning using ImageQuant software (Molecular Dynamics).

[3] = Side effects of IV injection in dogs; settings: 2 mg/kg IV into a forepaw vein at 24-hr and 1-hr prior to LAD ligation
Procedure: as §1

[4] = etanercept pretreated, 2-hr occlusion/4-hr reperfusion

Question: For etanercept, which “decrease in infarct size (% area at risk) compared to saline” value (myocardial infarct; [4]) is on record?
Answer: 61%

Question: And the “decrease in infarct size (% left ventricular mass) compared to saline” value (myocardial infarct; [4])?
Answer: 54%

Question: And the “infarct size, % left ventricular mass (LV)” value (myocardial infarct; etanercept pretreated, 2-hr occlusion/4-hr reperfusion, n=8, saline 13±1)?
Answer: 6±1 % LV

Question: And the “infarct size, % area at risk (AR)” value (myocardial infarct; etanercept pretreated, 2-hr occlusion/4-hr reperfusion, n=8, saline 38±6)?
Answer: 15±2 % AR

Question: What about the “reduction of infarct size expressed as % left ventricular mass or % area at risk” value (myocardial infarct; etanercept pretreatment, Model 2, approximate summary) of the same substance?
Answer: approximately 50%

Question: And the “fastest ventricular triplet rate observed per hour after LAD ligation (FIG. 18, FIG. 32)” value ([1]; 4 to 24 hr after LAD ligation)?
Answer: significant reduction

Question: What about the “mortality (dogs died of group)” value ([1]; 24 hr after LAD ligation, etanercept 2 mg/kg at -24 and -1 hr, bortezomib 0.0875 mg/kg at -1 and +6 hr, anakinra 10 mg/kg at -1 and +12 hr, control 4 of 10, preliminary) of the same substance?
Answer: 0 of 8

Question: And the “frequency of very rapid (≧360 bpm) ventricular triplets” value ([1]; etanercept 2 mg/kg IV 24 and 1 hr before LAD ligation, 4-24 hr (2 to 24 hr) after ligation, n=8, saline 21±6/hr)?
Answer: 6 ± 1 h⁻¹

Question: And the “average frequency of total rapid (≧300 bpm) ventricular triplets” value ([1]; etanercept 2 mg/kg IV 24 and 1 hr before LAD ligation, n=8, saline 152±32/hr)?
Answer: 45 ± 8 h⁻¹

Question: What about the “very rapid (≧360 bpm) ventricular triplets versus control (FIG. 31B)” value ([1]; etanercept 2 mg/kg, bortezomib 0.0875 mg/kg) of the same substance?
Answer: significant descrease; also recorded: significant decrease

Question: What about the “rapid (>300 bpm) ventricular triplets per hour versus control (FIG. 31A)” value ([1]; etanercept 2 mg/kg, bortezomib 0.0875 mg/kg, anakinra 10 mg/kg) of the same substance?
Answer: significant descrease

Question: And the “idioventricular heart rate on EKG” value ([1]; etanercept-treated dogs versus saline, after LAD ligation (FIG. 16B))?
Answer: slower idioventricular heart rate

Question: What about the “development of sustained ventricular tachycardia or fibrillation” value ([1]; etanercept-treated dogs, four saline-treated dogs developed it at 11-24 hours post ligation) of the same substance?
Answer: no etanercept-treated dogs developed sustained ventricular tachycardia or fibrillation

Question: And the “βARK in EBZ as percentage of unoperated control tissue” value ([2]; etanercept 2 mg/kg pretreated, immunoblot, n=5, saline 4.3%)?
Answer: 33.8±7.2%

Question: And the “salvage of βARK in EBZ tissue compared to saline control” value ([2]; etanercept pretreated)?
Answer: 8 fold

Question: What about the “side effects of the injection” value [3] of the same substance?
Answer: No side effects

Source: US7348305B2, “Inhibitor of cardiac tachyarrhythmias” (Department of Veterans Affairs, Rehabilitation, priority 2003, dated 2008)
